Test results reported in patent publication US7579315B2, “Casein peptides for alleviating or preventing aging of skin” (Pepsyn Ltd., priority 2000, dated 2009).

System: Human keratinocytes (HatKat)
Test: Growth of keratinocytes, cell count in Coulter counter after three days
Assay type: cell-based
Conditions: 10 ng/ml EGF versus medium with 0.5% FCS
Description: Human keratinocytes (HatKat) were grown in keratinocyte growth medium (TCS Cellworks Ltd.) until 20% confluence. Then, in the same medium, the keratinocytes were grown for three days with 0.5% foetal calf serum (FCS), at which point the cells were counted in a Coulter® counter. The cell numbers obtained are set out in Table 3 below.

Substance: epidermal growth factor (NSDSECPLSHDGYCLHDGVCMYIEALDKYACNCVVGYIGERCQYRDLKWWELR; UniProt P01133 971-1023, looked up) [EGF, epidermal growth factor, comparison growth factor at 10 ng/ml]
- increase in the growth of keratinocytes (in words): relatively modest increase
